Test results taken from patent publication US6967196B1, “Sulfonamide compounds and uses thereof” (Bristol-Myers Squibb Company, priority 1999, dated 2005).
Counter-ions that a name gives are not always drawn. Like-named read-outs stand apart in the source and are kept apart here.

System: amyloid β production in transfected H4 (human neuroglioma) cells stably expressing APP constructs
Assay: In vitro cell-based assay of inhibitors of amyloid β production (ELISA)
Settings: amyloid β in medium by ELISA, read-out: ACTIVITY (IC50, inhibition of amyloid β production)
How it was run: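 Sandwich ELISA read-out: Aβ in conditioned medium captured via C-terminal epitope mAb, detected with N-terminus-specific rabbit polyclonal, quantified from a standard curve. Compounds 10-100 μM, ~16 h exposure. Active = ≥50% inhibition vs control without significant cytotoxicity; dose-response follows.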

[1] = transfected H4 cells stably expressing APP constructs, approximately 16 hours incubation
[2] = transfected H4 cells stably expressing APP, approximately 16 hours incubation
[3] = Homo sapiens, 16 h, transfected H4 cells stably expressing APP, approximately 16 hours incubation
[4] = transfected H4 cells stably expressing APP, approximately 16 hours incubation, Table B
[5] = transfected H4 cells stably expressing APP, approx. 16 h incubation
[6] = Homo sapiens, 16 h, transfected H4 cells expressing APP, approximately 16 hours incubation
[7] = Homo sapiens, 16 h, transfected H4 cells stably expressing APP constructs, approximately 16 hours incubation

For `C[C@H](CCN1CCCC(S(C)(=O)=O)C1)N(c1cc(Cl)ccc1Cl)S(=O)(=O)c1ccc(Cl)cc1` (stereo partly drawn) [Example 1132, 4-chloro-N-(2,5-dichlorophenyl)-N-[3-[(3-methylsulfonyl)-1-piperidinyl]-1(R)-methylpropyl]benzenesulfonamide], the IC50 [1] was 50 to 100 nM.
“4-chloro-N-(2,5-difluorophenyl)-N-((1R)-1-{2-[3-(1H-imidazol-1-yl)propoxy]-6-methoxybenzyl}benzenesulfonamide hydrochloride [Example 911]” showed an IC50 [2] of over 500 nM.
With `CCC1CCCCN1CCCOc1ccccc1CN(c1ccccc1)S(=O)(=O)c1ccc(Cl)cc1` (stereo not drawn) [Example 865, 4-chloro-N-{2-[3-(2-ethyl-1-piperidinyl)propoxy]benzyl}-N-phenylbenzenesulfonamide hydrochloride] the IC50 [3] was 100 to 500 nM.
“4-chloro-N-(5-chloro-2-fluorophenyl)-N-[3-[2-[4-chloro-N-(5-chloro-2-fluorophenyl)-N-[(3-amino)-1(R)-methylpropyl]benzenesulfonamide]-3,4-dioxo-1-cyclobutenyl)amine-1(R)- [Example 1130]” showed an IC50 [1] of 50 to 100 nM.
Compound `C[C@H](CCCN(C)S(C)(=O)=O)N(c1cc(Cl)ccc1F)S(=O)(=O)c1ccc(Cl)cc1` [Example 1101] has an IC50 [1] of at most 25 nM.
In the case of `C[C@H](CCCCN1CCCC(S(C)(=O)=O)C1)N(c1cc(Cl)ccc1Cl)S(=O)(=O)c1ccc(Cl)cc1` (stereo partly drawn) [Example 1115, 4-chloro-N-(2,5-dichlorophenyl)-N-[5-[(3-methylsulfonyl)-1-piperidinyl]-1(R)-methylpentyl]benzenesulfonamide], the IC50 [1] is reported as 25 to 50 nM.
In the case of `O=S(=O)(c1ccc(Cl)cc1)N(Cc1ccccc1OCCCN1CCCCCC1)c1ccccc1` [Example 305, N-{2-[3-(1-azepanyl)propoxy]benzyl}-4-chloro-N-phenylbenzenesulfonamide Hydrochloride], the IC50 [4] is reported as 50 to 100 nM.
Compound `O=S(=O)(c1ccc(Cl)cc1)N(Cc1ccccc1OCCCN1CC=CCC1)c1ccccc1` [Example 289, 4-Chloro-N-{2-[3-(3,6-dihydro-1(2H)pyridinyl)propoxy]benzyl}-N-phenylbenzenesulfonamide Hydrochloride] has an IC50 [4] of 25 to 50 nM.
For “N-{3-[2-(1-{[(4-chlorophenyl)sulfonyl]-2,5-difluoroanilino}ethyl)phenoxy]propyl}-N-methyl-3-(trifluoromethyl)benzamide [Example 657]”, the IC50 [5] was 100 to 500 nM.
For `O=S1(=O)c2cccc3cccc(c23)N1Cc1ccccc1OCCCN1CCCCC1` [Example 269, 2-{2-[3-(1-piperidinyl)propoxy]benzyl}-2H-naphtho[1,8-cd]isothiazole 1,1-Dioxide Hydrochloride], the IC50 [4] was 25 to 50 nM.
In the case of `C[C@H](c1ccccc1CCO)N(c1cc(F)ccc1F)S(=O)(=O)c1ccc(Cl)cc1` [Example 1055, 4-chloro-N-(2,5-difluorophenyl)-N-{(1R)-1-[2-(2-hydroxyethyl)phenyl]ethyl}benzenesulfonamide], the IC50 [3] is reported as over 500 nM.
Work on `CNC(=O)OC[C@@H](C)N(c1cc(Cl)ccc1CO)S(=O)(=O)c1ccc(Cl)cc1` [Example 1280] yielded an IC50 [6] of at most 25 nM.
With `O=S(=O)(c1ccc(Cl)cc1)N(Cc1ccncc1)Cc1ccccc1OCCCN1CCCCC1` [Example 967, 4-chloro-N-{2-[3-(1-piperidinyl)propoxy]benzyl}-N-(4-pyridinylmethyl)benzenesulfonamide hydrochloride] the IC50 [3] was over 500 nM.
Work on “2-((1R)-1-{[(4-chlorophenyl)sulfonyl]-2,5-difluoroanilino}ethyl)benzyl isopropylcarbamate [Example 674]” yielded an IC50 [5] of 100 to 500 nM.
Compound `CC(C)C(CO)NC(=O)[C@@H](C)N(c1cc(Cl)ccc1F)S(=O)(=O)c1ccc(Cl)cc1` (stereo partly drawn) [Example 1349] has an IC50 [6] of 100 to 500 nM.
For `O=S(=O)(c1ccccc1)N(Cc1ccccc1OCCCN1CCC(O)C1)c1ccccc1` (stereo not drawn) [Example 279, N-{2-[3-(3-hydroxy-1-pyrrolidinyl)propoxy]benzyl}-N-phenylbenzenesulfonamide Hydrochloride], the IC50 [4] was 25 to 50 nM.
Work on `O=S(=O)(c1ccc(Cl)cc1)N(Cc1ccccc1OCCCN1CCCCC1)C1CCOCC1` [Example 986, 4-chloro-N-{2-[3-(1-piperidinyl)propoxy]benzyl}-N-tetrahydro-2H-pyran-4-ylbenzenesulfonamide hydrochloride] yielded an IC50 [3] of over 500 nM.
`C[C@@H](c1ccccc1OCCCn1ccnc1)N(c1cc(F)ccc1F)S(=O)(=O)c1ccc(Cl)cc1` [Example 1048, 4-chloro-N-(2,5-difluorophenyl)-N-((1S)-1-{2-[3-(1H-imidazol-1-yl)propoxy]phenyl}ethyl)benzenesulfonamide hydrochloride] showed an IC50 (transfected H4 cells stably expressing APP, approximately 16 hours incubation, hydrochloride) of over 500 nM.
`CCNC(=O)OCC(C)N(c1cc(Cl)ccc1CO)S(=O)(=O)c1ccc(Cl)cc1` (stereo not drawn) [Example 1279] was tested, and the IC50 [6] was at most 25 nM.
“2-((1R)-1-{[(4-chlorophenyl)sulfonyl]-2,5-difluoroanilino}ethyl)benzyl 2-methoxyethylcarbamate [Example 669]” was tested, and the IC50 [5] was 100 to 500 nM.
With `C[C@H](CCN1CCCC(S(C)(=O)=O)C1)N(c1cc(Cl)ccc1Cl)S(=O)(=O)c1ccc(Cl)cc1` (stereo partly drawn) [Example 1118, 4-chloro-N-(2,5-dichlorophenyl)-N-[3-[(3-methylsulfonyl)-1-piperidinyl]-1(R)-methylpropyl]benzenesulfonamide] the IC50 [1] was 25 to 50 nM.
In the case of `C[C@H](COC(=O)N1CCCC1)N(c1cc(Cl)ccc1Cl)S(=O)(=O)c1ccc(Cl)cc1` [Example 1237, 4-Chloro-N-(2,5-dichlorophenyl)-N-[2-[[[pyrrolidin-1-yl]carbonyl]oxy]-R-1-methylethyl]benzenesulfonamide], the IC50 [7] is reported as at most 25 nM.
`C[C@H](CCCS(=O)(=O)O)N(c1cc(Cl)ccc1Cl)S(=O)(=O)c1ccc(Cl)cc1` [Example 1194, (4R)-4-[N-[2,5-dichlorophenyl][(4-chlorophenyl)sulfonyl]amino]pentylsulfonic acid] showed an IC50 [7] of 100 to 500 nM.
`CN(CCCOc1ccccc1CN(c1cc(F)ccc1F)S(=O)(=O)c1ccc(Cl)cc1)C(=O)/C=C\c1ccccc1` [Example 841, (2Z)-N-{3-[2-({[(4-chlorophenyl)sulfonyl]-2,5-difluoroanilino}methyl)phenoxy]propyl}-N methyl-3-phenyl-2-propenamide] gave an IC50 [2] of 100 to 500 nM.
Work on `CN1CCCCC1CCOc1ccccc1CN(c1ccccc1)S(=O)(=O)c1ccc(Cl)cc1` (stereo not drawn) [Example 276, 4-Chloro-N-{2-[2-(1-methyl-2-piperidinyl)ethoxy]benzyl}-N-phenylbenzenesulfonamide Hydrochloride] yielded an IC50 [4] of 25 to 50 nM.
`C[C@H](c1ccccc1OCCCN(C)C(=O)C(C)(C)C)N(c1cc(F)ccc1F)S(=O)(=O)c1ccc(Cl)cc1` [Example 1059, N-{3-[2-((1R)-1-{[(4-chlorophenyl)sulfonyl]-2,5-difluoroanilino}ethyl)phenoxy]propyl}-N,2,2-trimethylpropanamide] showed an IC50 [3] of over 500 nM.
In the case of `C[C@H](CCSCC(=O)O)N(c1cc(Cl)ccc1Cl)S(=O)(=O)c1ccc(Cl)cc1` [Example 1181, (6R)-6-[(2,5-dichlorophenyl)-[(4-chlorophenyl)sulfonyl]-amino]-3-thioheptanoic acid], the IC50 [1] is reported as at most 25 nM.
`CC(C)N(C)S(=O)(=O)CCC[C@@H](C)N(c1cc(Cl)ccc1Cl)S(=O)(=O)c1ccc(Cl)cc1` [Example 1212, 4-chloro-N-[2,5-dichlorophenyl]-N-[4-[[N-(1-methylethyl)methylamino]sulfonyl]-1(R)-methylbutyl]benzenesulfonamide] showed an IC50 [7] of at most 25 nM.
With “3-chloro-N-{3-[2-(1-{[(4-chlorophenyl)sulfonyl]-2,5-difluoroanilino}ethyl)phenoxy]propyl}-N-methylbenzenesulfonamide [Example 684]” the IC50 [5] was 100 to 500 nM.
With `CC(C)[C@@H](NC(=O)CCC[C@@H](C)N(c1cc(Cl)ccc1F)S(=O)(=O)c1ccc(Cl)cc1)C(=O)O` [Example 1270, (R)-4-Chloro-N-(5-chloro-2-fluorophenyl)-N-[5-[N-(R)-[1-(carboxy)-2-methylpropyl]amino]-1-methyl-5-oxopentyl]benzenesulfonamide] the IC50 [1] was 25 to 50 nM.
With `CSCCC[C@@H](C)N(c1cc(Cl)ccc1CO)S(=O)(=O)c1ccc(Cl)cc1` [Example 1228, 4-chloro-N-[5-chloro-2-(hydroxymethyl)phenyl]-N-[1(R)-methyl-(4-methylthio)butyl]benzenesulfonamide] the IC50 [1] was at most 25 nM.
`C[N+]1(CCCOc2ccccc2CN(c2cc(Cl)ccc2Cl)S(=O)(=O)c2ccc(Cl)cc2)CCCCC1` [Example 513, 1-{3-[2-({2,5-dichloro[(4-chlorophenyl)sulfonyl]anilino}methyl)phenoxy]propyl}-1-methylpiperidinium Iodide] was tested, and the IC50 [4] was 100 to 500 nM.
For “N-{3-[2-(1-{[(4-chlorophenyl)sulfonyl]-2,5-difluoroanilino}ethyl)phenoxy]propyl}-3-nitrobenzamide [Example 723]”, the IC50 [5] was 100 to 500 nM.
“N-hydroxy-3-(2-{[(phenylsulfonyl)anilino]methyl}phenyl)propanamide [Example 1042]” was tested, and the IC50 [2] was over 500 nM.
`C[C@H](C(=O)NCc1cccs1)N(c1cc(Cl)ccc1F)S(=O)(=O)c1ccc(Cl)cc1` [Example 1357] was tested, and the IC50 [6] was 100 to 500 nM.
“N-{4-[2-(1-{[(4-chlorophenyl)sulfonyl]-2,5-difluoroanilino}ethyl)phenoxy]butyl}-N-methylacrylamide [Example 843]” gave an IC50 [2] of 100 to 500 nM.
